# Several values for one entry are separate records, joined by “and”; a condition that tells them apart may be missing. Identical values can stand only once.
# Assays:
# [1] = test system: H460 cells; assay: [3H]-mitoxantrone accumulation assay, H460; type: cell-based, human; details: parental H460 cells; compound 5 μM; Figure 6A
# Experimental: (§1) To determine the accumulation of drugs on H460, H460/MX20, KB-3-1, and KB-C2 cells, the cells ([…] cells/well) were seeded in the 24-well plates and incubated at 37 °C with 5% CO2 [17]. After 12 h of incubation, a test compound (5 µM) was added and the plates were incubated at 37 °C for 2 h. Cells were then incubated with 0.01 µM [^3H]-MX or [^3H]-paclitaxel-containing medium for an additional 2 h at 37 °C, with or without a test compound. The cells were washed twice with ice-cold phosphate-buffered saline (PBS), trypsinized and lysed at the end of incubation. The radioactivity was measured using the Packard TRICARB1 1900A liquid scintillation analyzer.
# [2] = test system: BCRP-overexpressing H460/MX20 cells; assay: [3H]-mitoxantrone accumulation assay, H460/MX20; type: cell-based, human; details: resistant H460/MX20 cells; compound 5 μM; Figure 6A
# Experimental: as §1
# [3] = test system: P-gp-mediated multidrug-resistant cell line KB-C2; assay: MTT reversal assay with paclitaxel, KB-C2 cells; type: cell-based, human; details: Figure 5A
# Experimental: The human lung cancer cell line H460, and its MX-selected derivative BCRP-overexpressing cell line, H460/MX20, were used in this study. The KB-C2 cell line was selected by colchicine (Alfa Aesar, Haverhill, MA, USA) (2 μg/mL) with human cervical carcinoma cell line KB-3-1.
# Cytotoxicity tests and reversal experiments were performed using the 3-(4,5-dimethylthiazol-2-yl)-2,5-diphenyltetrazolium bromide (MTT) colorimetric assay. Cells were seeded evenly into 96-well plates. […] To determine the MDR reversal efficacy of the quinazolinamine derivatives, an anticancer drug (mitoxantrone, colchicine, paclitaxel or cisplatin) was added into the designated wells after 2 h pre-incubation with a quinazolinamine derivative or a positive control inhibitor at non-toxic concentrations. After 72 h of drug incubation, the MTT reagent (4 mg/mL) was added into the wells, and then the plates were incubated for an additional 4 h. Subsequently, the supernatant was discarded and 100 µL of dimethyl sulfoxide (DMSO) was added to dissolve the formazan crystals. Cell viability was determined by measuring the absorbance by using an accuSkan™ GO UV/Vis Microplate Spectrophotometer (Fisher Sci., Fair Lawn, NJ, USA) at a wavelength of 570 nm.
# [4] = test system: P-gp protein in KB-C2 cells; assay: Western blot of P-gp expression in KB-C2 cells; type: cell-based, human
# Experimental: (§2) Cells in T25 flask were washed with ice-cold PBS. Lysis buffer (100 µL) was added into T25 flask. Using a cell scraper, scrape adherent cells were scraped off the flask and the cell suspension was transferred into a microcentrifuge tube (1.5 mL). Cells were agitated for 20 min at 4 °C and cell lysate was centrifuged mixture at 4 °C for 20 min at 12,000 rpm. The supernatant (lysate) was used for the gel electrophoresis. Equal amounts of total cell lysates (20 µg protein) were resolved by sodium dodecyl sulfate polyacrylamide gel electrophoresis (SDS-PAGE) and electrophoretically transferred onto polyvinylidene fluoride (PVDF) membranes. After incubation in a blocking solution (5% milk) for 2 h at room temperature, the membranes were incubated overnight with primary monoclonal antibodies against GAPDH (GA1R) (Invitrogen, Carlsbad, CA, USA) at 1:1000 dilution of BCRP protein (BXP 21) (Sigma-Aldrich, Inc., St. Louis, MO, USA) (1:1000) or P-gp (F4) (Sigma-Aldrich, Inc., St. Louis, MO, USA) at 4 °C, and were further incubated with horseradish […] (HRP)-conjugated secondary antibody (Thermo Fisher Scientific Inc., Waltham, MA, USA) at 1:1000 dilution for 2 h at room temperature. The protein antibody complex was detected using an enhanced chemiluminescence detection system. The grayscale ratio was analyzed by ImageJ and normalized by the grayscale of the ABC protein divided by that of GAPDH.
# [5] = test system: KB-C2 cells; assay: [3H]-paclitaxel accumulation assay, KB-C2; type: cell-based, human; details: resistant cell line KB-C2; compound 5 μM; Figure 6B
# Experimental: as §1
# [6] = test system: BCRP protein in H460/MX20 cells; assay: Western blot of BCRP expression in H460/MX20 cells; type: cell-based, human
# Experimental: as §2
# [7] = Metabolic stability with human liver microsomes; type: in vitro ADME; details: after 1 h of incubation with human liver microsomes, 37 °C, NADPH; note: tested at 200 µM
# Experimental: Human liver microsome (20 mg/mL) 6.25 µL, nicotinamide adenine dinucleotide phosphate (NADPH) (0.75 µmol), MgCl2 (0.75 µmol), and the test compound (0.05 µmol) were added into a potassium phosphate buffer (pH 7.4) with 250 µL of final volume. The incubation was carried out aerobically at 37 °C. The mixture was pre-incubated without NADPH for 10 min at 37 °C and NADPH was added to start the reaction. At 1 h after the start of the reaction, an aliquot (50 µL) of the incubation mixture was taken from each incubation and mixed with 150 µL of ice-cold acetonitrile to terminate the reaction. Subsequently, the sample was centrifuged (12,000 rpm) at room temperature. The resulting supernatant was filtered and analyzed using HPLC (LC, Agilent 1200; column, HC-C18(2); column temperature, 25 °C; mobile phase, solvent A, methanol, solvent B, water; gradient elution, 30–99% solvent A; flow rate, 1 mL/min; UV signals were recorded at 254 nm).
# [8] = test system: KB-3-1 cells; assay: [3H]-paclitaxel accumulation assay, KB-3-1; type: cell-based, human; details: parental cells KB-3-1; compound 5 μM; Figure 6B
# Experimental: as §1
# [9] = test system: BCRP localization in H460/MX20 cells; assay: Immunofluorescence assay of BCRP localization in H460/MX20 cells; type: cell-based, human; details: 5 μM for 24, 48, and 72 h, Figure 8A,C
# Experimental: For immunofluorescence analysis, parental and drug-resistant cells were seeded in 24-well plates at 10,000–20,000 cells/well and incubated for 24 h. The cells were incubated with or without cyclopropyl quinazolinamine 22 or azide quinazolinamine 33 for 24 h, 48 h, and 72 h. Thereafter, cells were washed with PBS and fixed with 4% paraformaldehyde for 10 min at room temperature and then rinsed with PBS twice, followed by permeabilization with 1% Triton X-100 for 10 min at 4 °C. The cells were again washed twice with PBS, and then blocked with 6% BSA for 1 h at 37 °C. Fixed cells were incubated with monoclonal antibody against the BCRP protein (BXP 21) (Sigma-Aldrich, Inc., St. Louis, MO) (1:1000) or P-gp (F4) (Sigma-Aldrich, Inc., St. Louis, MO, USA) overnight at 4 °C, followed by two washes with PBS. The cells were then further incubated with Alexa flour 488 goat anti-mouse IgG (1:1000) (Abcam plc.) for 2 h at 37 °C. After the cells were washed twice with PBS, 4′,6-diamidino-2-phenylindole (DAPI) (2 µg/mL) was used for nuclear counterstaining. The immunofluorescence images were generated using a Nikon TE-2000S fluorescence microscope (Nikon Instruments Inc, Melville, NY, USA).
smiles,measurement,setting,value
"c1ccc2c(Nc3ccc(C4CC4)cc3)nc(-c3ccncc3)nc2c1 [Compound 22, N-(4-Cyclopropylphenyl)-2-(pyridin-4-yl)quinazolin-4-amine]",accumulation of mitoxantrone,[1],slightly increase
same,accumulation of mitoxantrone,[2],increased the accumulation
same,sensitization to paclitaxel,[3],could sensitize KB-C2 cells
same,cytoplasmic P-gp expression level,"[4]; KB-C2 cytoplasm fraction, Figure 9D",slightly increased
same,expression level of the P-gp protein on the membrane,"[4]; KB-C2 membrane fraction, Figure 9C",slightly decreased
same,P-gp protein expression,"[4]; KB-C2 total cell lysate, Figure 7B",nor did it change the P-gp protein expression
same,accumulation of paclitaxel,[5],significantly increased
same,BCRP protein expression level in the cytoplasm,"[6]; H460/MX20 cytoplasm fraction, Figure 9B",increased
same,expression level of BCRP protein on the membrane,"[6]; H460/MX20 membrane fraction, Figure 9A",decreased
same,expression level of BCRP protein,"[6]; H460/MX20 total cell lysate, Figure 7",did not change the expression level
same,"Metabolic Stability, % compound remaining",[7],92% and 92 ± 8%
same,accumulation of paclitaxel,[8],did not increase
same,BCRP fluorescence on the membranes / intracellular localization of BCRP,[9],decreased gradually

# Source: PMC9953095, “Design, Synthesis and Biological Evaluation of Quinazolinamine Derivatives as Breast Cancer Resistance Protein and P-Glycoprotein Inhibitors with Improved Metabolic Stability” (Biomolecules, 2023)
